These results are taken from US7179842B2, “Method of treating non-insulin dependent diabetes mellitus with phytanic acid derivatives” (priority 2000, dated 2007).

In data set [1] the test system is GLUT-1 mRNA. The data set can be described thus: Quantitative RT-PCR (TaqMan) mRNA level, GLUT-1. The class given is cell-based, rat. The conditions noted are these: for GLUT-1 mRNA induction / GLUT-1 mRNA levels: 24 h. On the procedure:
(§1) The data is presented as means of 3 independent experiments.
(§2) For the quantification of the expression levels the novel Real Time Quantitative TaqMan™ PCR using the multiplex method was employed. Total RNA was isolated using the RNeasy kit from QIAGEN (Valencia, Calif.). The first strand cDNA was synthesized in a 20 μl reaction from 5 μg total RNA by reverse transcription with the. […] Subsequently the cDNA was diluted to 500 μl. In a 50 μl reaction, 10 μl cDNA was amplified in the 7700 Sequence Detector (PE Biosystems, Foster City, Calif.), using the Universal Master Mix (PE Biosystems, Foster City, Calif.) and the following PCR-primers and TaqMan™-probes at the concentrations of 300 nM and 100 nM, respectively, and PCR-primers and TaqMan™-probes for the reference gene β-actin at concentration of 50 nM.
(§3) The induction of gene expression, and corresponding error bars were calculated from 3 independent experiments using the ΔCT method according to the manufacturer's protocol.

The test system of data set [2] is GLUT-2 mRNA. The data set can be described thus: Quantitative RT-PCR (TaqMan) mRNA level, GLUT-2. The class given is cell-based, rat. The following applies: 24 h. The procedure: as §1, §2, §3
Data set [3] relates to glucokinase mRNA. Nature of the data set: Quantitative RT-PCR (TaqMan) mRNA level, glucokinase. The format is cell-based, rat. The conditions noted are these: 100 μM, 24 h. The procedure: as §1, §2, §3
On the technique in general: In qPCR the cycle at which signal appears reflects the starting amount.

For data set [4], the system named is PEPCK mRNA. Nature of the data set: Quantitative RT-PCR (TaqMan) mRNA level, PEPCK. The class given is cell-based, rat. On the procedure:
as §1, §2, §3

For data set [5] the following is noted: adult mice, 0.5% phytol diet for 21 days; cited from earlier work.
The conditions of data set [6]: cited from earlier work.
Data set [7] concerns Rat primary hepatocytes. The data set can be described thus: [3H]-2-deoxy-D-glucose uptake in hepatocytes. The format is cell-based. The following applies: 24 h treatment. On the procedure:
Rat primary hepatocytes were cultured for 24 h at 37° C. in media containing phytanic acid 10 μM (□) and 100 μM (▪), palmitic acid 100 μM ( ), DHA 100 μM (∘), and control (▴). Subsequently [3H]-2-deoxy-D-glucose uptake was measured after 15, 30, and 60 min incubation period.
Cells cultured in 24-well plates were treated for 24 h with phytanic acid, palmitic acid, and DHA. Subsequently the medium was removed and cells were washed twice with pre-warmed phosphate buffered saline, pH 7.4 (PBS). 500 μl of pre-warmed glucose reaction mixture (0.01 mM 2-deoxy-D-glucose and 3 μCi/ml [3H]-2-deoxy-D-glucose in PBS) was then added to the cells. The reaction mixture was further incubated at 37° C. for different time intervals. The reaction was terminated by aspirating the reaction mixture and washing the cells twice with ice cold 10 mM 2-deoxy-D-glucose in PBS. Cells were then solubilized with 500 μl of 1% sodium dodecyl sulfate, 400 μl of which was transferred to scintillation vials containing 5 ml Quickszint 1 (Zinsser Analytic, Frankfurt, Germany). Radioactivity was counted in a Tri-Carb 2500 (Packard, Meriden, Conn.) liquid scintillation counter. The remaining lysate was used for protein content determination with the BCA Protein Assay Reagent Kit (Pierce, Rockford, Ill.). Data are expressed as means±SD from 3 independent experiments.

In data set [8] the test system is cytochrome P450/4A1 (Cyp4al) mRNA. Nature of the data set: Quantitative RT-PCR (TaqMan) mRNA level, Cyp4a1. The class given is cell-based, rat. The following applies: 10 μM for 24 h. The procedure: (§4) The mRNA levels were determined with the TaqMan™ methodology after a 24 h stimulation of the rat primary hepatocytes with 10 μM phytanic acid, palmitic acid, and DHA. mRNA levels were normalized to β-actin expression and expressed relative to untreated cells. The data is presented as means of 3 independent experiments. Error bars were calculated as described in Example 3.
(§5) For the quantification of the expression levels the novel Real Time Quantitative TaqMan™ PCR using the multiplex method was employed. Total RNA was isolated using the RNeasy kit from QIAGEN (Valencia, Calif.). The first strand cDNA was synthesized in a 20 μl reaction from 5 μg total RNA by reverse transcription with the. SuperScriptII™ Reverse Transcriptase Kit (Life Technologies Inc., Coralville Iowa) and 100 ng random hexamers, as previously described (Zimmermann, U., Fluehmann, B., Born, W., Fischer, J., A. & Muff, R. (1997) Coexistence of Novel Amylin-Binding Sites With Calcitonin Receptors in Human Breast Carcinoma Mcf-7 Cells, Journal of Endocrinology. 155, 423–431). Subsequently the cDNA was diluted to 500 μl. […]
as §3

The test system of data set [9] is HMG-CoA reductase mRNA. Nature of the data set: Quantitative RT-PCR (TaqMan) mRNA level, HMG-CoA reductase. The conditions noted are these: 10 μM for 24 h. The format is cell-based, rat. The procedure:
as §4, §5, §3

Data set [10] concerns lipoprotein lipase (LPL) mRNA. Nature of the data set: Quantitative RT-PCR (TaqMan) mRNA level, LPL. The class given is cell-based, rat. The conditions noted are these: 10 μM for 24 h. On the procedure:
as §4, §5, §3

In data set [11] the test system is low-density lipoprotein receptor (LDLR) mRNA. Nature of the data set: Quantitative RT-PCR (TaqMan) mRNA level, LDLR. The class given is cell-based, rat. The following applies: 10 μM for 24 h. On the procedure: as §4, §5, §3
Data set [12] concerns tumor necrosis factor α (TNFα) mRNA. Nature of the data set: Quantitative RT-PCR (TaqMan) mRNA level, TNFα. The class given is cell-based, rat. The conditions noted are these: 10 μM for 24 h. The procedure:
as §4, §5, §3

In data set [13] the test system is apolipoprotein A1 (ApoA1) mRNA. The data set can be described thus: Quantitative RT-PCR (TaqMan) mRNA level, ApoA1. The class given is cell-based, rat. The conditions noted are these: 10 μM for 24 h. On the procedure:
as §4, §5, §3

Data set [14] has as its system apolipoprotein E (ApoE) mRNA. Nature of the data set: Quantitative RT-PCR (TaqMan) mRNA level, ApoE. The conditions noted are these: 10 μM for 24 h. The format is cell-based, rat. On the procedure:
as §4, §5, §3

In data set [15] the test system is liver fatty acid binding protein (LFABP) mRNA. Nature of the data set: Quantitative RT-PCR (TaqMan) mRNA level, LFABP. The class given is cell-based, rat. The conditions noted are these: 10 μM for 24 h. On the procedure:
as §4, §5, §3

Data set [16] deals with plasma insulin. Nature of the data set: In vivo study, plasma insulin in rats fed phytanic acid. The conditions noted are these: 150 and 750 mg phytanic acid/kg feed, day 7, vs control chow. Further details: species or system male Wistar rats. The procedure:
Male Wistar rats were adapted for two days and then fed with the respective substance. The values are means±SD (see Example 4).
To determine the beneficial effect of phytanic acid on plasma insulin levels, a study was performed using male Wistar rats. The animals were adapted for two days and then fed with control chow, 150 mg phytanic acid/kg feed (P-10), and 750 mg phytanic acid/kg feed (P-50), respectively. Blood samples were taken at day 7 and the insulin concentration in the plasma was measured (FIG. 7).

For data set [17], the system named is Rat primary hepatocytes. The conditions noted are these: 24 h, 1 mM.
Data set [18] concerns RXR. The following applies: read-out: RXR receptor binding IC50; cited from earlier work.
The subject of data set [19] is RXR. The conditions noted are these: cited from earlier work.
For data set [20], the system named is all-trans-retinoic acid receptor (RAR). The conditions noted are these: cited from earlier work.
The target in data set [21] is T1, PPARα (Homo sapiens, UniProt Q07869).
T1 sequence (Q07869 1-468): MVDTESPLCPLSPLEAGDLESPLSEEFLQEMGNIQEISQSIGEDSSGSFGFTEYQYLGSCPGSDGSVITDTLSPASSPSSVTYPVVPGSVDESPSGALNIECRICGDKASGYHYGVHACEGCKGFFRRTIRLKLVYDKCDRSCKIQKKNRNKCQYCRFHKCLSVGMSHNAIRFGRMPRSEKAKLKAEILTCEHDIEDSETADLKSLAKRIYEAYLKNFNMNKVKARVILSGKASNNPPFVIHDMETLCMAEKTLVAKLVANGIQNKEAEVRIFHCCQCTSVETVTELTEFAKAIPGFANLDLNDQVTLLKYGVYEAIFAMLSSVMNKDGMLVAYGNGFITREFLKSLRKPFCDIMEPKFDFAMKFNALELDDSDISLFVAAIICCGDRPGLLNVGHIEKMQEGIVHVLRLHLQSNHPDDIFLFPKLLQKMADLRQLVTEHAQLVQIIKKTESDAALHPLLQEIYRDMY
The conditions noted are these: read-out: Kd-value as PPARα ligand; cited from earlier work.

The mark [22] stands for this setting: concentrations lower than 100 μM.

Like-named read-outs stand apart in the source and are kept apart here.

For `CCCCCCCCCCCCCCCC(=O)O` [palmitic acid, reference compound], in [1] (100 μM), the “GLUT-1 mRNA induction” value is 2.4 (1.7–3.3) fold. The “GLUT-1 mRNA levels” value in data set [1] (setting [22]) is “did not affect”. Besides, the “GLUT-2 mRNA levels” value in data set [2] (low concentrations) is “minor induction”. Further, in data set [3], the “transcription of glucokinase mRNA” value was “reduced”. For the same compound, the “transcription of PEPCK mRNA” value in data set [4] (100 μM, 24 h) was “reduced”.

In the case of `C/C(=C\CO)CCC[C@H](C)CCC[C@H](C)CCCC(C)C` [phytol], in data set [5], the cholesterol serum levels entry is recorded as “remained unaffected” and the “decrease in triglyceride serum levels” value was 40%. The “intestinal absorption from dietary chlorophyll” value in data set [6] (rat and man) was “minimal”. In addition, in data set [6] (rats), the “absorption compared with phytanic acid” value is “much less well adsorbed than phytanic acid”.

With `CC(C)CCCC(C)CCCC(C)CCCC(C)CC(=O)O` (stereo not shown) [phytanic acid], the “2-deoxy-D-glucose uptake vs control, palmitic acid or DHA” value in data set [7] (100 μM, uptake over 15, 30, 60 min) was “substantial increase”. For the same compound, the 2-deoxy-D-glucose uptake result in data set [7] (setting [22]) was “no measurable effect”. For the same compound, the “GLUT-1 mRNA induction” value in data set [1] (100 μM) is given as 2.2 (1.6–2.9) fold. The “GLUT-1 mRNA maximal induction” value in data set [1] (100 μM, after 6 hours, normalized to β-actin, relative to untreated) is recorded as 5.6 (5.1–6.2) fold. Further, in data set [1] (setting [22]), the “GLUT-1 mRNA levels” value was “did not affect”. Moreover, the “GLUT-2 mRNA maximal induction” value in [2] (100 μM) was 3.2 (2.7–3.8) fold. Further, the “GLUT-2 mRNA induction” value in data set [2] (0.01–100 μM) was “at least 2 fold”. Also, the “glucokinase mRNA induction” value in [3] is listed as 3.0 (2.5–3.4) fold. Moreover, the PEPCK transcript result in data set [4] (10 μM for 24 h) is “increase”. In addition, the “PEPCK mRNA induction” value in [4] (100 μM, 24 h) is recorded as 2.5 (1.7–3.6) fold. Also, the “PEPCK mRNA maximal induction” value in data set [4] (100 μM, after 6 hours) is 4.4 (3.4–5.7) fold. The Cyp4a1 transcript entry in data set [8] is “increase”. Besides, in data set [9], the HMG-CoA reductase transcript entry was “increase”. In addition, in [10], the LPL transcript entry was “increase”. Also, the LDLR transcript result in data set [11] is “increase”. Moreover, the TNFα transcript result in data set [12] was “increase”. Further, the “ApoA1 mRNA” value in data set [13] is reported as “downregulated”. In addition, in data set [14], the “ApoE mRNA” value is listed as “downregulated”. The “LFABP mRNA levels” value in data set [15] was “remained unaffected”. The plasma insulin result in data set [16] is on record as “could reduce the plasma insulin”. Also, the “cells survived compared to untreated” value in data set [17] turned out to be 54±17%. Besides, the concentration for half-maximal inhibition (IC50) – broadly, the concentration at which inhibition is half-maximal – in data set [18] was 2300 nM. Also, the EC50 (in general, the concentration at which the effect is half-maximal) in data set [19] (read-out: RXR transcriptional effects EC50) was 3000 nM. In addition, in data set [20], the “activity on retinoid receptors (RXR vs RAR)” value is “restricted to RXR receptors”. The dissociation constant (Kd) (in general, the free concentration of one partner at which half of the binding sites on the other are occupied at equilibrium, for simple one-to-one binding) in [21] was 10 nM.

As for `CC1=C(/C=C/C(C)=C\C=C\C(C)=C\C(=O)O)C(C)(C)CCC1` [9-cis-retinoic acid, reference compound], the EC50 in data set [19] (read-out: RXR activation EC50) was […]; in [20] (read-out: RAR activation EC50) it was 13 nM.

Turning to `CC/C=C\C/C=C\C/C=C\C/C=C\C/C=C\C/C=C\CCC(=O)O` [DHA, docohexaenoic acid, reference compound], the “GLUT-1 mRNA levels” value in [1] (concentrations up to 100 μM) is given as “did not affect”. The “GLUT-2 mRNA levels” value in data set [2] was “did not affect”. Moreover, the “transcription of glucokinase mRNA” value in data set [3] is “reduced”. Further, the “transcription of PEPCK mRNA” value in data set [4] (100 μM, 24 h) was “reduced”.
